Measurements reported in PubChem BioAssay (NCI).
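48-hour exposure; five concentrations; linearly interpolated endpoints. At the GI50, growth is halved. TGI denotes the concentration required for complete inhibition of growth.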

What was measured:
Assay in all cases: DTP human tumour cell line panel, 48 h
SK-MEL-28 melanoma = system: SK-MEL-28 melanoma
HCT-116 colon = system: HCT-116 colon
SW-620 colon = system: SW-620 colon
SN12C renal = system: SN12C renal
CCRF-CEM leukemia = system: CCRF-CEM leukemia
RXF 393 renal = system: RXF 393 renal
MOLT-4 leukemia = system: MOLT-4 leukemia
RPMI-8226 leukemia = system: RPMI-8226 leukemia
PC-3 prostate = system: PC-3 prostate
NCI/ADR-RES ovarian = system: NCI/ADR-RES ovarian
UACC-62 melanoma = system: UACC-62 melanoma
NCI-H460 lung = system: NCI-H460 lung
SK-MEL-5 melanoma = system: SK-MEL-5 melanoma
MDA-MB-231 breast = system: MDA-MB-231 breast
HOP-92 NSCLC = system: HOP-92 NSCLC
U251 CNS = system: U251 CNS
SR leukemia = system: SR leukemia
SK-OV-3 ovarian = system: SK-OV-3 ovarian
IGROV1 ovarian = system: IGROV1 ovarian
MDA-MB-435 = system: MDA-MB-435
SK-MEL-2 melanoma = system: SK-MEL-2 melanoma
MCF7 breast = system: MCF7 breast
LOX IMVI melanoma = system: LOX IMVI melanoma
SF-268 CNS = system: SF-268 CNS
OVCAR-5 ovarian = system: OVCAR-5 ovarian
T-47D breast = system: T-47D breast
TK-10 renal = system: TK-10 renal
A498 renal = system: A498 renal

Question: For `Nc1c(C(=O)Nc2ccccc2)sc2nc3c(cc12)CCCC3`, which GI50 (SK-MEL-28 melanoma) is on record?
Answer: 14700 nM

Question: And the TGI (SK-MEL-28 melanoma)?
Answer: > 100000 nM

Question: And the GI50 (HCT-116 colon)?
Answer: 490 nM

Question: What about the TGI (HCT-116 colon) of the same compound?
Answer: > 100000 nM

Question: What about the GI50 (SW-620 colon) of the same compound?
Answer: 403 nM

Question: What about the TGI (SW-620 colon) of the same compound?
Answer: > 100000 nM

Question: What about the GI50 (SN12C renal) of the same compound?
Answer: 1230 nM

Question: And the TGI (SN12C renal)?
Answer: > 100000 nM

Question: And the GI50 (CCRF-CEM leukemia)?
Answer: 374 nM

Question: And the TGI (CCRF-CEM leukemia)?
Answer: > 46500 nM

Question: What about the GI50 (RXF 393 renal) of the same compound?
Answer: 744 nM

Question: What about the TGI (RXF 393 renal) of the same compound?
Answer: 8170 nM

Question: And the GI50 (MOLT-4 leukemia)?
Answer: 693 nM

Question: And the TGI (MOLT-4 leukemia)?
Answer: > 100000 nM

Question: And the GI50 (RPMI-8226 leukemia)?
Answer: 681 nM

Question: What about the TGI (RPMI-8226 leukemia) of the same compound?
Answer: 11500 nM

Question: And the GI50 (PC-3 prostate)?
Answer: 703 nM

Question: And the TGI (PC-3 prostate)?
Answer: > 71200 nM

Question: What about the GI50 (NCI/ADR-RES ovarian) of the same compound?
Answer: 683 nM

Question: What about the TGI (NCI/ADR-RES ovarian) of the same compound?
Answer: > 100000 nM

Question: What about the GI50 (UACC-62 melanoma) of the same compound?
Answer: 493 nM

Question: What about the TGI (UACC-62 melanoma) of the same compound?
Answer: > 100000 nM

Question: And the GI50 (NCI-H460 lung)?
Answer: 458 nM

Question: What about the TGI (NCI-H460 lung) of the same compound?
Answer: > 75900 nM

Question: And the GI50 (SK-MEL-5 melanoma)?
Answer: 365 nM

Question: What about the TGI (SK-MEL-5 melanoma) of the same compound?
Answer: 2240 nM

Question: And the GI50 (MDA-MB-231 breast)?
Answer: 3930 nM

Question: And the TGI (MDA-MB-231 breast)?
Answer: > 100000 nM

Question: And the GI50 (HOP-92 NSCLC)?
Answer: 509 nM

Question: What about the TGI (HOP-92 NSCLC) of the same compound?
Answer: > 100000 nM

Question: And the GI50 (U251 CNS)?
Answer: 473 nM

Question: What about the TGI (U251 CNS) of the same compound?
Answer: 34000 nM

Question: What about the GI50 (SR leukemia) of the same compound?
Answer: 360 nM

Question: And the TGI (SR leukemia)?
Answer: 19600 nM

Question: What about the GI50 (SK-OV-3 ovarian) of the same compound?
Answer: 832 nM

Question: And the TGI (SK-OV-3 ovarian)?
Answer: 37500 nM

Question: And the GI50 (IGROV1 ovarian)?
Answer: 2640 nM

Question: And the TGI (IGROV1 ovarian)?
Answer: > 100000 nM

Question: What about the GI50 (MDA-MB-435) of the same compound?
Answer: 172 nM

Question: What about the TGI (MDA-MB-435) of the same compound?
Answer: 415 nM

Question: And the GI50 (SK-MEL-2 melanoma)?
Answer: 3240 nM

Question: What about the TGI (SK-MEL-2 melanoma) of the same compound?
Answer: > 67300 nM

Question: What about the GI50 (MCF7 breast) of the same compound?
Answer: 355 nM

Question: And the TGI (MCF7 breast)?
Answer: > 100000 nM

Question: What about the GI50 (LOX IMVI melanoma) of the same compound?
Answer: 908 nM

Question: What about the TGI (LOX IMVI melanoma) of the same compound?
Answer: > 100000 nM

Question: And the GI50 (SF-268 CNS)?
Answer: 2200 nM

Question: What about the TGI (SF-268 CNS) of the same compound?
Answer: > 100000 nM

Question: What about the GI50 (OVCAR-5 ovarian) of the same compound?
Answer: 18600 nM

Question: And the TGI (OVCAR-5 ovarian)?
Answer: > 100000 nM

Question: What about the GI50 (T-47D breast) of the same compound?
Answer: 918 nM

Question: What about the TGI (T-47D breast) of the same compound?
Answer: > 63200 nM

Question: And the GI50 (TK-10 renal)?
Answer: 16800 nM

Question: What about the TGI (TK-10 renal) of the same compound?
Answer: > 100000 nM

Question: What about the GI50 (A498 renal) of the same compound?
Answer: 227 nM

Question: What about the TGI (A498 renal) of the same compound?
Answer: 30000 nM
